System: IGROV1 complex spheroids (HUVEC, MSC), viability % test/control
Assay: Anticancer human tumor IGROV1 cell line growth inhibition [GQUAD];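 also: spheroids exposed to compounds for 7 days before readout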;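 as to viability, T/C: 100% = DMSO vehicle control viability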
Settings: for IC50: curve of first compound; for viability, T/C: stronger effect = lower value
Method in brief: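 Viability of tumor cells grown as complex spheroids with endothelial and stromal cells, exposed to drug combinations. Top concentration at or near clinical Cmax (else 10 microM), diluted in half-log increments.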

[1] = second compound 0.0316 µM, first compound 0.000999 µM
[2] = second compound 0.0316 µM, first compound 0.00316 µM
[3] = second compound 0.0316 µM, first compound 0.00999 µM
[4] = second compound 0.0316 µM, first compound 0.0316 µM
[5] = second compound 0.0316 µM, first compound 0.0999 µM
[6] = second compound 0.0316 µM, first compound 0.316 µM
[7] = second compound 0.1 µM, first compound 0.000999 µM
[8] = second compound 0.1 µM, first compound 0.00316 µM
[9] = second compound 0.1 µM, first compound 0.00999 µM
[10] = second compound 0.1 µM, first compound 0.0316 µM
[11] = second compound 0.1 µM, first compound 0.0999 µM
[12] = second compound 0.1 µM, first compound 0.316 µM
[13] = second compound 0.316 µM, first compound 0.000999 µM
[14] = second compound 0.316 µM, first compound 0.00316 µM
[15] = second compound 0.316 µM, first compound 0.00999 µM
[16] = second compound 0.316 µM, first compound 0.0316 µM
[17] = second compound 0.316 µM, first compound 0.0999 µM
[18] = second compound 0.316 µM, first compound 0.316 µM
[19] = second compound 1 µM, first compound 0.000999 µM
[20] = second compound 1 µM, first compound 0.00316 µM
[21] = second compound 1 µM, first compound 0.00999 µM
[22] = second compound 1 µM, first compound 0.0316 µM
[23] = second compound 1 µM, first compound 0.0999 µM
[24] = second compound 1 µM, first compound 0.316 µM
[25] = second compound 3.16 µM, first compound 0.000999 µM
[26] = second compound 3.16 µM, first compound 0.00316 µM
[27] = second compound 3.16 µM, first compound 0.00999 µM
[28] = second compound 3.16 µM, first compound 0.0316 µM
[29] = second compound 3.16 µM, first compound 0.0999 µM
[30] = second compound 3.16 µM, first compound 0.316 µM
[31] = second compound 10 µM, first compound 0.000999 µM
[32] = second compound 10 µM, first compound 0.00316 µM
[33] = second compound 10 µM, first compound 0.00999 µM
[34] = second compound 10 µM, first compound 0.0316 µM
[35] = second compound 10 µM, first compound 0.0999 µM
[36] = second compound 10 µM, first compound 0.316 µM

SMILES: CC[C@@]1(O)C(=O)OCc2c1cc1n(c2=O)Cc2cc3c(CN(C)C)c(O)ccc3nc2-1 + Cc1cnc(CNC(=O)c2c(=O)c3ccc(N4CCCN(C)CC4)nc3n3c2sc2ccccc23)cn1
- IC50 (second compound 0.0316 µM): 13.3 nM
- IC50 (second compound 0.1 µM): < 0.999 nM
- IC50 (second compound 0.316 µM): < 0.999 nM
- IC50 (second compound 1 µM): < 0.999 nM
- IC50 (second compound 3.16 µM): < 0.999 nM
- IC50 (second compound 10 µM): < 0.999 nM
- viability, T/C [1]: 69.8%
- viability, T/C [2]: 57.8%
- viability, T/C [3]: 60.4%
- viability, T/C [4]: 19.8%
- viability, T/C [5]: 12.4%
- viability, T/C [6]: 8.43%
- viability, T/C [7]: 33%
- viability, T/C [8]: 34.3%
- viability, T/C [9]: 31.3%
- viability, T/C [10]: 15.8%
- viability, T/C [11]: 12%
- viability, T/C [12]: 9.62%
- viability, T/C [13]: 24.3%
- viability, T/C [14]: 29.3%
- viability, T/C [15]: 18%
- viability, T/C [16]: 12.4%
- viability, T/C [17]: 11.9%
- viability, T/C [18]: 8.87%
- viability, T/C [19]: 21.8%
- viability, T/C [20]: 18.1%
- viability, T/C [21]: 12.3%
- viability, T/C [22]: 11.1%
- viability, T/C [23]: 13.1%
- viability, T/C [24]: 9.29%
- viability, T/C [25]: 10.1%
- viability, T/C [26]: 8.55%
- viability, T/C [27]: 9.85%
- viability, T/C [28]: 8.98%
- viability, T/C [29]: 10.3%
- viability, T/C [30]: 8.29%
- viability, T/C [31]: 11.6%
- viability, T/C [32]: 9.45%
- viability, T/C [33]: 11.2%
- viability, T/C [34]: 8.53%
- viability, T/C [35]: 10%
- viability, T/C [36]: 9.32%

SMILES: CCc1c2c(nc3ccc(O)cc13)-c1cc3c(c(=O)n1C2)COC(=O)[C@]3(O)CC + Cc1cnc(CNC(=O)c2c(=O)c3ccc(N4CCCN(C)CC4)nc3n3c2sc2ccccc23)cn1
- IC50 (second compound 0.0316 µM): < 0.999 nM
- IC50 (second compound 0.1 µM): < 0.999 nM
- IC50 (second compound 0.316 µM): < 0.999 nM
- IC50 (second compound 1 µM): < 0.999 nM
- IC50 (second compound 3.16 µM): < 0.999 nM
- IC50 (second compound 10 µM): < 0.999 nM
- viability, T/C [1]: 31.5%
- viability, T/C [2]: 13.3%
- viability, T/C [3]: 9.95%
- viability, T/C [4]: 8.54%
- viability, T/C [5]: 4.31%
- viability, T/C [6]: 1.99%
- viability, T/C [7]: 17.2%
- viability, T/C [8]: 8.8%
- viability, T/C [9]: 9.75%
- viability, T/C [10]: 7.73%
- viability, T/C [11]: 4.92%
- viability, T/C [12]: 2.18%
- viability, T/C [13]: 14.4%
- viability, T/C [14]: 10.9%
- viability, T/C [15]: 8.79%
- viability, T/C [16]: 6.94%
- viability, T/C [17]: 6.74%
- viability, T/C [18]: 2.05%
- viability, T/C [19]: 10.6%
- viability, T/C [20]: 10.6%
- viability, T/C [21]: 9.03%
- viability, T/C [22]: 9.75%
- viability, T/C [23]: 5.59%
- viability, T/C [24]: 1.55%
- viability, T/C [25]: 11.3%
- viability, T/C [26]: 7%
- viability, T/C [27]: 6.92%
- viability, T/C [28]: 5.6%
- viability, T/C [29]: 3.86%
- viability, T/C [30]: 0.83%
- viability, T/C [31]: 7.27%
- viability, T/C [32]: 8.08%
- viability, T/C [33]: 7.06%
- viability, T/C [34]: 6.04%
- viability, T/C [35]: 3.78%
- viability, T/C [36]: 0.4%

SMILES: Cc1cccc(N(C)C(=O)C2C(O)CCN2c2nc(C)cc(C(F)(F)F)c2C#N)c1 (stereo unspecified) + Cc1cnc(CNC(=O)c2c(=O)c3ccc(N4CCCN(C)CC4)nc3n3c2sc2ccccc23)cn1
- IC50 (second compound 0.0316 µM): > 10000 nM
- IC50 (second compound 0.1 µM): < 31.6 nM
- IC50 (second compound 0.316 µM): < 31.6 nM
- IC50 (second compound 1 µM): < 31.6 nM
- IC50 (second compound 3.16 µM): < 31.6 nM
- IC50 (second compound 10 µM): < 31.6 nM
- viability, T/C [4]: 66.2%
- viability, T/C (second compound 0.0316 µM, first compound 0.1 µM): 68%
- viability, T/C [6]: 65.6%
- viability, T/C (second compound 0.0316 µM, first compound 1 µM): 42%
- viability, T/C (second compound 0.0316 µM, first compound 3.16 µM): 76.5%
- viability, T/C (second compound 0.0316 µM, first compound 10 µM): 63%
- viability, T/C [10]: 45.2%
- viability, T/C (second compound 0.1 µM, first compound 0.1 µM): 38.2%
- viability, T/C [12]: 38.2%
- viability, T/C (second compound 0.1 µM, first compound 1 µM): 31.6%
- viability, T/C (second compound 0.1 µM, first compound 3.16 µM): 39.6%
- viability, T/C (second compound 0.1 µM, first compound 10 µM): 34.5%
- viability, T/C [16]: 24.8%
- viability, T/C (second compound 0.316 µM, first compound 0.1 µM): 23.1%
- viability, T/C [18]: 20.6%
- viability, T/C (second compound 0.316 µM, first compound 1 µM): 26.8%
- viability, T/C (second compound 0.316 µM, first compound 3.16 µM): 29.3%
- viability, T/C (second compound 0.316 µM, first compound 10 µM): 17.3%
- viability, T/C [22]: 12.8%
- viability, T/C (second compound 1 µM, first compound 0.1 µM): 9.76%
- viability, T/C [24]: 20.4%
- viability, T/C (second compound 1 µM, first compound 1 µM): 14.9%
- viability, T/C (second compound 1 µM, first compound 3.16 µM): 21.1%
- viability, T/C (second compound 1 µM, first compound 10 µM): 17.1%
- viability, T/C [28]: 11.1%
- viability, T/C (second compound 3.16 µM, first compound 0.1 µM): 11.2%
- viability, T/C [30]: 13.9%
- viability, T/C (second compound 3.16 µM, first compound 1 µM): 12.8%
- viability, T/C (second compound 3.16 µM, first compound 3.16 µM): 13.4%
- viability, T/C (second compound 3.16 µM, first compound 10 µM): 10.1%
- viability, T/C [34]: 8.57%
- viability, T/C (second compound 10 µM, first compound 0.1 µM): 9.75%
- viability, T/C [36]: 7.75%
- viability, T/C (second compound 10 µM, first compound 1 µM): 10.5%
- viability, T/C (second compound 10 µM, first compound 3.16 µM): 14.8%
- viability, T/C (second compound 10 µM, first compound 10 µM): 11.7%

— PubChem BioAssay AID2060486 (Molecular Pharmacology Branch, DTP, NCI, 2025)
